We go through nine molecules from patent publication US20180008587A1, “THIOHYDANTOIN ANDROGEN RECEPTOR ANTAGONISTS FOR THE TREATMENT OF CANCER” (Jaressen Pharmaceutica NV, priority 2016, published 2018).

What all share (type): cell-based
For experiment [1], the target named is T1, wild-type Androgen Receptor (AR-wt) (Homo sapiens, UniProt P10275).
T1 construct: expressed in transfected cells; host or cells: LNCaP (LNCaP AR (cs))
T1 sequence (P10275 1-920): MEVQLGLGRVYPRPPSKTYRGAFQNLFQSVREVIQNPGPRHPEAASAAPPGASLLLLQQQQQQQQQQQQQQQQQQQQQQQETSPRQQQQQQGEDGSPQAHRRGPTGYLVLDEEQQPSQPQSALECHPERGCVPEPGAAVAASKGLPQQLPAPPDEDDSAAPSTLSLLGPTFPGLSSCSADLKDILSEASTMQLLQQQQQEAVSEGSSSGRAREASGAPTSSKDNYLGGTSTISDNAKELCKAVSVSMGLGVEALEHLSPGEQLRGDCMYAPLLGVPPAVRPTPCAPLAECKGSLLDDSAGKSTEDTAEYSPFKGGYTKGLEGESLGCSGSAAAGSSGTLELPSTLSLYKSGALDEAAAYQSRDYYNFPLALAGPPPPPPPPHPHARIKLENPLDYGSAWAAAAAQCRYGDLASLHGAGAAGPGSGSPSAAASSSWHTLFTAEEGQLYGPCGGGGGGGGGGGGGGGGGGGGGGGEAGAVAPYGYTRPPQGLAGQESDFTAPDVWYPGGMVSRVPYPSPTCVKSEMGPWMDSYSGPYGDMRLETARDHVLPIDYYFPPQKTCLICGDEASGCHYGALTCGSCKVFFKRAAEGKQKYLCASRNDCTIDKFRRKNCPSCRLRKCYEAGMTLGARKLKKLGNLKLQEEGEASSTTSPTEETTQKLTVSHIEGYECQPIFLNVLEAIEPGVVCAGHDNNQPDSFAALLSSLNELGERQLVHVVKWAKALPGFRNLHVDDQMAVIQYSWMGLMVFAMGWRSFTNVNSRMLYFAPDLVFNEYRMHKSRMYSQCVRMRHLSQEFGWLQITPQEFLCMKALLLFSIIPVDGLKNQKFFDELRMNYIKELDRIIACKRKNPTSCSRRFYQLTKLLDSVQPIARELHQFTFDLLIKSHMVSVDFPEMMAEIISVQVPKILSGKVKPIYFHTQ
Nature of the experiment: LNCaP-AR-wt ANT reporter assay (ARE firefly luciferase, antagonist mode). The note with it: for IC50: antagonist mode, 400 pM R-1881 challenge, −Log10(IC50 [Molar]), read-out: LNCaP-AR-wt ANT pIC50 (converted); for Emax: read-out: LNCaP-AR-wt ANT MAX % Inh. As for the experimental part:
(§1) A stable pooled-population cell line was generated using puromycin (Life Technologies) selection at 1:10,000 v/v. The protocol below was used for both cell lines and for testing of the compounds of Formula (I) of the present invention.
(§2) LNCaP cells were grown to about 80% confluence, media removed and cells rinsed in Hank's balanced salt solution prior to separation from the plate with 0.05% Trypsin EDTA. Cells were lifted and trypsin negated in complete CSS (charcoal stripped serum) culture media. […] Agonist challenge was at 400 pM for WT assay and 600 pM for F876L assay. Plates containing cells and compounds herein were incubated for a further 20-24 hours at 37° C., 5% CO2 before addition of 40 μL/well of Steady-Glo Luciferase Assay System Reagent (Promega# E2520). After 1 h, plates were read for luminescence on a BMG Pherastar.
(§3) EC/IC50 calculations were achieved utilizing calculated RLU data and data fitting macros. Data were fit using least-squares methods to the following formula: […]
For orientation: In a reporter assay the amount or activity of a reporter protein is the signal.

Experiment [2] addresses T1, wild-type Androgen Receptor (AR-wt). Nature of the experiment: LNCaP-AR-wt AG reporter assay (ARE firefly luciferase, agonist mode). The note with it: for Emax: read-out: LNCaP-AR-wt AG MAX % Stim. As for the experimental part:
as §1, §2, §3

For experiment [3], the target named is T2, F876L mutant Androgen Receptor (AR-F876L) (Homo sapiens, UniProt P10275, F877L).
T2 construct: expressed in transfected cells; host or cells: LNCaP (LNCaP F876L)
T2 sequence (P10275 1-920 F877L): T1 sequence (P10275 1-920) with F877L
Kind of experiment: LNCaP-AR-F876L ANT reporter assay (ARE firefly luciferase, antagonist mode). As to conditions: for Emax: read-out: LNCaP-AR-F876L ANT MAX % Inh; for IC50: read-out: LNCaP-AR-F876L ANT pIC50 (converted). As for the experimental part: as §1, §2, §3

The target of experiment [4] is T2, F876L mutant Androgen Receptor (AR-F876L). Kind of experiment: LNCaP-AR-F876L AG reporter assay (ARE firefly luciferase, agonist mode). The note with it: for Emax: read-out: LNCaP-AR-F876L AG MAX % Stim. As for the experimental part: as §1, §2, §3
[5] abbreviates: maximum % inhibition of R1881 control response over tested concentration range.
[6] abbreviates: agonist mode, −Log10(EC50 [Molar]), read-out: LNCaP-AR-wt AG pEC50 (converted).
Where [7] appears, read: maximum % stimulation (agonist response) over tested concentration range.
The mark [8] stands for this setting: agonist mode, −Log10(EC50 [Molar]), read-out: LNCaP-AR-F876L AG pEC50 (converted).

Where a chain is given by its changes, count along the chain named. Read-outs that look alike come from different tables or passages of the source. Bounds are passed on as bounds.

For the molecule `Cc1cc(N2C(=O)C3(CCC3)N(c3ccc(C(=O)Nc4ccc(Cl)cc4)c(F)c3)C2=S)cnc1C#N` [Cpd 74, N-(4-chlorophenyl)-4-[6-(6-cyano-5-methyl-3-pyridyl)-5-oxo-7-thioxo-6,8-diazaspiro[3.4]octan-8-yl]-2-fluoro-benzamide], the IC50 in experiment [1] is 1150 nM; in experiment [3], 759 nM. For the same molecule, the Emax in experiment [1] (setting [5]) turned out to be 94.1%; in experiment [2] (setting [7]), 0.6%; in experiment [3] (setting [5]), 93.8%; in experiment [4] (setting [7]) it was 1%. The EC50 in experiment [2] (setting [6]) and in experiment [4] (setting [8]) was more than 15100 nM in each case.
On to `N#Cc1ncc(N2C(=O)C3(CCC3)N(c3ccc(C(=O)NCc4ccccc4)c(F)c3)C2=S)cc1C(F)(F)F` [Cpd 36, N-benzyl-4-[6-[6-cyano-5-(trifluoromethyl)-3-pyridyl]-5-oxo-7-thioxo-6,8-diazaspiro[3.4]octan-8-yl]-2-fluoro-benzamide], for which the values for the IC50 in experiment [1] and in experiment [3] were 1480 nM and 851 nM, respectively. Also, the Emax in experiment [1] is 96.1%; in experiment [2] it was 0.9%; in experiment [3], 91.3%; in experiment [4], 0.3%. The EC50 in experiment [2] and in experiment [4] was more than 15100 nM each time.
For `CCOC(=O)CNC(=O)c1ccc(N2C(=S)N(c3cnc(C#N)c(C(F)(F)F)c3)C(=O)C23CCC3)cc1F` [Cpd 41, ethyl 2-[[4-[6-[6-cyano-5-(trifluoromethyl)-3-pyridyl]-5-oxo-7-thioxo-6,8-diazaspiro[3.4]octan-8-yl]-2-fluoro-benzoyl]amino]acetate], the IC50 in experiment [1] was 282 nM; in experiment [3], 186 nM. Moreover, the Emax in experiment [1] (setting [5]) is 102%; in experiment [2] (setting [7]) it was -0.2%; in experiment [3] (setting [5]), 102%; in experiment [4] (setting [7]), 0.3%. The EC50 in experiment [2] (setting [6]) and in experiment [4] (setting [8]) was more than 15100 nM each time.
For the molecule `N#Cc1ncc(N2C(=O)C3(CCC3)N(c3ccc(F)cc3)C2=S)cc1C(F)(F)F` [Cpd 102, 5-[8-(4-fluorophenyl)-5-oxo-7-thioxo-6,8-diazaspiro[3.4]octan-6-yl]-3-(trifluoromethyl)pyridine-2-carbonitrile], the IC50 in experiment [1] is 646 nM; in experiment [3] it was 501 nM. For the same molecule, the Emax came out at 101% in experiment [1] (setting [5]), 0.9% in experiment [2] (setting [7]), 99.6% in experiment [3] (setting [5]) and 1.9% in experiment [4] (setting [7]). The EC50 in experiment [2] (setting [6]) and in experiment [4] (setting [8]) was more than 15100 nM in each case.
As to `Cc1cc(N2C(=O)C3(CCC3)N(c3ccc(C(=O)Nc4cncc(F)c4)c(F)c3)C2=S)cnc1C#N` [Cpd 113, 4-[6-(6-cyano-5-methyl-3-pyridyl)-5-oxo-7-thioxo-6,8-diazaspiro[3.4]octan-8-yl]-2-fluoro-N-(5-fluoro-3-pyridyl)benzamide], the IC50 in experiment [1] is 1170 nM; in experiment [3], 871 nM. Moreover, the Emax in experiment [1] (setting [5]) came to 97.4%; in experiment [2] (setting [7]), 25.3%; in experiment [3] (setting [5]) it was 98.2%; in experiment [4] (setting [7]), 3.1%. Further, the EC50 in experiment [2] (setting [6]) and in experiment [4] (setting [8]) was more than 15100 nM each time.
As to `Cc1cncc(-c2ccc(N3C(=S)N(c4cnc(C#N)c(C)c4)C(=O)C34CCC4)cc2)c1` [Cpd 114, 3-methyl-5-[8-[4-(5-methyl-3-pyridyl)phenyl]-5-oxo-7-thioxo-6,8-diazaspiro[3.4]octan-6-yl]pyridine-2-carbonitrile], the results for the IC50 in experiment [1] and in experiment [3] were 240 nM and 355 nM, respectively. Moreover, the Emax in experiment [1] turned out to be 98.7%; in experiment [2] it was 0.7%; in experiment [3] it was 97.8%; in experiment [4], 3.3%. Besides, the EC50 in experiment [2] and in experiment [4] was more than 15100 nM in each case.
As to `C#CCNC(=O)c1ccc(N2C(=S)N(c3cnc(C#N)c(C(F)(F)F)c3)C(=O)C23CCC3)cc1F` [Cpd 111, 4-[6-[6-cyano-5-(trifluoromethyl)-3-pyridyl]-5-oxo-7-thioxo-6,8-diazaspiro[3.4]octan-8-yl]-2-fluoro-N-prop-2-ynyl-benzamide], the figures for the IC50 in experiment [1] and in experiment [3] were 407 nM and 525 nM, respectively. The Emax in experiment [1] worked out at 102%; in experiment [2] it was 0.5%; in experiment [3], 94.1%; in experiment [4], 2.7%. The EC50 in experiment [2] and in experiment [4] was more than 15100 nM each time.
In the case of `N#Cc1ncc(N2C(=O)C3(CCC3)N(c3ccc(OC4CCN(CCO)CC4)cc3)C2=S)cc1C(F)(F)F` [Cpd 51, 5-[8-[4-[[1-(2-hydroxyethyl)-4-piperidyl]oxy]phenyl]-5-oxo-7-thioxo-6,8-diazaspiro[3.4]octan-6-yl]-3-(trifluoromethyl)pyridine-2-carbonitrile], the IC50 in experiment [1] was 389 nM; in experiment [3], 200 nM. In addition, the Emax in experiment [1] amounted to 99%; in experiment [2] it was 0.8%; in experiment [3] it was 101%; in experiment [4] it was 0.2%. For the same molecule, the EC50 in experiment [2] and in experiment [4] was more than 15100 nM in each case.
With `COc1ccc(N2C(=S)N(c3cnc(C#N)c(C)c3)C(=O)C23CCC3)cc1` [Cpd 69, 5-[8-(4-methoxyphenyl)-5-oxo-7-thioxo-6,8-diazaspiro[3.4]octan-6-yl]-3-methyl-pyridine-2-carbonitrile], the IC50 in experiment [1] is 282 nM; in experiment [3] it was 132 nM. Besides, the Emax in experiment [1] (setting [5]) is 102%; in experiment [2] (setting [7]), 0.9%; in experiment [3] (setting [5]), 99.1%; in experiment [4] (setting [7]), 0.7%. Also, the EC50 in experiment [2] (setting [6]) and in experiment [4] (setting [8]) was more than 15100 nM in each case.
